Reference: ChEMBL document CHEMBL3507680, “University of Dundee, Gates Library screen for HepG2 cell viability”

experiment: Human HepG2 cell viability assay in 384 well format; type: toxicity, cell-based; set-up: dose 125 nL, time 70.5 hour; concentration not given beside the values; settings: HepG2 cells, read-out: Inhibition

| SMILES | cytotoxicity at 70.5 h |
| --- | --- |
| O=C(Nc1ccc(F)cc1)C1CCc2ccccc2N1 (stereo not drawn) | -1.61% |
| Cc1nc(CN2CCCC23CCN(c2nc4ccccc4s2)CC3)co1 | -12.9% |
| CCOC(=O)[C@H]1[C@@H](O)C(=O)N(C)C12CCN(S(=O)(=O)CC)CC2 | -10.3% |
| O=C(Cn1cc(Cl)cn1)NCCN1CCC(O)(c2ccc(F)cc2)CC1 | 5.27% |
| Cc1cc(-c2nn(C)c(Cl)c2CN2CC[C@@](O)(C3CCC3)[C@H](C)C2)no1 | 0.567% |
| CCOCCN1CCN(CC(O)c2ccc(C)c(C)c2)CC1 (stereo not drawn) | -10.1% |
| CCC(C)NC(=O)c1cccc(CNC(=O)CC(F)(F)F)c1 (stereo not drawn) | -6.23% |
| CSCCC(O)C(=O)N1CCC(OCc2cccnc2)CC1 (stereo not drawn) | 16.3% |
| CC(C)Oc1ccc(CN)c(C(F)(F)F)c1 | -7.67% |
| COC(=O)c1cccn1C1CCN(Cc2cccc(C(N)=O)c2)CC1 | -0.0643% |
| Cc1ccc(N2CCC3(CCN(Cc4csc(C)n4)CC3)CC2)nn1 | -6.42% |
| Cc1cn2c(n1)C(CNCc1ccc(C)s1)CCC2 (stereo not drawn) | 8.09% |
| O=C(c1ccnc(-n2ccnc2)c1)N1CCCC(n2ccnc2)C1 (stereo not drawn) | -15% |
| CN(Cc1cccs1)C(=O)CN1CCCC(Cn2cncn2)C1 (stereo not drawn) | -5.28% |
| CN(C)CCN1CCN(Cc2ccco2)Cc2cccnc21 | -4.07% |
| Cc1cc(C)c(C(=O)N2CCCC(C(=O)CCc3ccccc3)C2)cn1 (stereo not drawn) | -3.58% |
| Cc1ncc2c(c1CNC(=O)C1(c3ccc(F)cc3)CC1)CCNC2 | -5.4% |
| COc1ccc(OCC(=O)NS(=O)(=O)c2ccc(Br)s2)cc1 | 18.9% |
| O=C1NCC2(CCCN(c3ncnc4c3CCC4)CC2)O1 (stereo not drawn) | 2.31% |
| Cc1noc(C)c1C(=O)NCC(C)N1CCc2ccccc21 (stereo not drawn) | 9.63% |
| COC(=O)N1CCCC(C(=O)NCCc2c[nH]c3cc(C)ccc23)C1 (stereo not drawn) | -10.8% |
| CS(=O)(=O)c1nccn1Cc1ccc(C(N)=O)cc1 | -4.15% |
| COCCn1nc(C(=O)N2CCN(C)CC2C)ccc1=O (stereo not drawn) | -4.08% |

| SMILES | cytotoxicity at 70.5 h |
| --- | --- |
| O=C(c1coc(-c2ccccc2)n1)N1CCCCC1 | -10.3% |
| Cc1occc1-c1nc(NC2CCCC2)ncc1-c1ccccn1 | 1.09% |
| CSc1ncc(C(=O)N2C[C@H]3CC[C@@H]2CN(Cc2ccccc2)C3)cn1 | -1.13% |
| Cc1ccccc1CSc1nc(N)cc(N2C[C@H](O)[C@@H](N(C)C)C2)n1 | -2.01% |
| Cc1cnccc1N1CCN(C[C@]2(O)CCCN3CCCC[C@@H]32)CC1 | 4.29% |
| CC(C)COC(=O)N1CCC2(CCNC2)C1 (stereo not drawn) | -10.5% |
| c1cnc(NCc2noc3c2CN(C2CCOCC2)CC3)nc1 | -10.6% |
| Cc1ccccc1C(NC(=O)CCCS(C)(=O)=O)C(C)(C)C (stereo not drawn) | 14.3% |
| CCC(=O)N1CCC(Cc2ccccc2-c2ccccc2)(C(N)=O)C1 (stereo not drawn) | -20.3% |
| Cc1cccc(OCCN2CCN(Cc3cnn(CCO)c3)CC2)c1 | -1.35% |
| CC(C)SCCn1ccc2[nH]c(=O)c(C#N)cc2c1=O | -8.8% |
| NC(=O)N1CC[C@H]2CO[C@H](CNC(=O)c3ccnnc3)[C@H]2C1 | -0.828% |
| COCCNC(=O)c1ccccc1-n1cc(CN)cn1 | -1.19% |
| O=S(=O)(C1CC1)N1CC[C@]2(C[C@@H](Oc3ncccc3F)CO2)C1 | 6.64% |
| Cc1cnn(CC(C)NCc2csc(-c3cccs3)n2)c1 (stereo not drawn) | -22.3% |
| N#Cc1ccc(C(=O)N2CCC3(CC2)CC3)cc1 | 4.59% |
| CCOCC(=O)N1C[C@H]2CN(CC3CC3)C(=O)[C@H]2C1 | -5.22% |
| CC1CCCN(Cc2ccnc(-c3cccnc3)n2)C1 (stereo not drawn) | -13% |
| CC(C)CN1CC[C@H]2OCC[C@@H](C(=O)N3CCCO3)[C@@H]2C1 | -18.2% |
| CO[C@H]1C[C@@H]2CN(C(=O)c3ccc(C)s3)C[C@@H]2C1 | -4.22% |
| CCC1CCCCN1C(=O)c1ccc2[nH]nnc2c1 (stereo not drawn) | -2.33% |
| CC(NCc1ccccc1Cl)c1ccc(OCC(=O)NC2CC2)cc1 (stereo not drawn) | 0.704% |
| COC[C@@H]1CC[C@H]2[C@H](CCN2S(=O)(=O)c2ccc(F)cc2)O1 | -28.6% |

| SMILES | cytotoxicity at 70.5 h |
| --- | --- |
| c1ccc(OCCCN2CCOC(CNc3cccnn3)C2)cc1 (stereo not drawn) | -6.97% |
| CCc1nc2c(N3CCC4(CC3)CNC(=O)C4)ncnc2o1 | -3.31% |
| CC1CCc2nn(CCNC(=O)c3cccs3)c(=O)cc2C1 (stereo not drawn) | 25.2% |
| O=C(CC1CCc2ccccc21)NC1(C(=O)O)CCOCC1 (stereo not drawn) | -14% |
| COc1cc(N2CCC3(CC2)C(c2ccncc2)CC(=O)N3C)ncn1 (stereo not drawn) | -9.06% |
| CC(C)c1nnc2n1CCN(Cc1nc3c(F)cccc3[nH]1)C2 | -5.06% |
| CC(C(=O)N1CCCN(Cc2cscn2)CC1)N1CCOCC1 (stereo not drawn) | -8.05% |
| COc1ccc(C)cc1CC(=O)Nc1cc(C)n[nH]1 | -8.99% |
| COc1ccc(C)cc1-c1[nH]c2ccccc2c1C(=O)O | -10.2% |
| O=C(C1CCCCC1)N1CCC2(CC1)CNCc1ccccc12 | 0.691% |
| CN(C)CCNC(=O)CCC1CCN(C(=O)c2ccc(O)cn2)CC1 | -6.92% |
| Cc1cncc(C(=O)N2CCO[C@H]3[C@H](Oc4ccccn4)CC[C@@H]32)c1 | -12.4% |
| COc1cc(Cl)c(C)cc1NC(=O)CNc1ccn(CC(N)=O)n1 | -7.27% |
| O=C(O)CNc1cc(-c2cc(C3CC3)ncn2)c2cc[nH]c2n1 | 0.922% |
| COc1cccc(S(=O)(=O)CCNC(C)Cn2cccn2)c1 (stereo not drawn) | 4.6% |
| CC(C)S(=O)(=O)NCC1CCCN(C(=O)c2ccc3c(c2)CCC3)C1 (stereo not drawn) | 1.31% |
| COc1cc(NCCCSc2nnc(C)s2)ncn1 | 12% |
| O=C(CC1CN(Cc2ccccc2)CCO1)NC1CCCC1 (stereo not drawn) | 11.6% |
| CC(C)(C)CN(CCC#N)C(=O)c1cccc(CC#N)c1 | -3.08% |
| COCC1CN(Cc2ccc(OC)cc2)Cc2nnn(CC3CC3)c21 (stereo not drawn) | -4.99% |
| CC(C)c1ncc(CN2C[C@@H](CN3CCCN(C)CC3)[C@@H](CO)C2)cn1 | -3.2% |
| NC(=O)Cn1c(CO)cnc1SCC(=O)NCc1ccccc1 | 13.6% |
| CC(=O)N1CCN(c2ccnc(C)n2)CC(COc2ccccc2)C1 (stereo not drawn) | -3.78% |

| SMILES | cytotoxicity at 70.5 h |
| --- | --- |
| O=C(NCC1CCCOC1)c1ccc(-c2ccccc2)[nH]c1=O (stereo not drawn) | 0.0722% |
| CSCC(CCO)NC(=O)Nc1cccc(Br)c1C (stereo not drawn) | -21.2% |
| CC1CN(C)CCN1Cc1cccc(C(=O)N(C)C)c1 (stereo not drawn) | 33.2% |
| Cc1cc(C(=O)NCC(=O)NC(c2ncccc2C)C(C)C)c(C)o1 (stereo not drawn) | 3.7% |
| CN(C)C(=O)COCC1CN(Cc2ccco2)Cc2ncn(C)c21 (stereo not drawn) | -0.299% |
| c1cc(CN2Cc3nccn3CC(Cn3cncn3)C2)ccn1 (stereo not drawn) | 3.67% |
| CCN(C(=O)Nc1cc(C)on1)C(C)c1cccc(O)c1 (stereo not drawn) | -9.79% |
| COc1cccc(NC(=O)c2cc3c([nH]c2=O)CCCC3=O)c1 | -8.19% |
| Cc1noc(C)c1C(=O)N1CCCC(c2nccn2Cc2cscn2)C1 (stereo not drawn) | -5.18% |
| Cc1nnc(CN2CCCC2c2ccc3c(c2)OCCO3)n1C (stereo not drawn) | -3.49% |
| COCCn1ccnc1C1CCCN(c2cnccn2)C1 (stereo not drawn) | 15.5% |
| c1cnn(CC2CCCCN2Cc2cn3ccsc3n2)c1 (stereo not drawn) | -13.5% |
| CC(C)(CN1C[C@H](Nc2ncccn2)[C@@H](C2CC2)C1)N1CCOCC1 | -11.6% |
| CC1=N[C@@]2(CC[C@@H]3CN(CC(C)C)C[C@@H]32)C(=O)N1C | -5.39% |
| Cc1cnn(-c2cccc(N3CCN(c4cc(C)nc(C)n4)CC3)n2)c1 | 15.5% |
| O[C@@H]1C[C@@H](c2nc(-c3ccccc3)no2)N(Cc2ccncc2)C1 | -1.52% |
| CCOCc1cccc(S(=O)(=O)Nc2ccn(CC)n2)c1 | -0.0962% |
| Cn1nc(C2CN(C(=O)c3cccnc3)C2)c2nccnc21 | -3.75% |
| COc1cccc(-c2cnnc(N(C)CCC3CCCCO3)n2)c1 (stereo not drawn) | 0.0165% |
| Nc1cc2c(nn1)CCN(C(=O)CC1CCCC1)C2 | 3.78% |
| O=C(CN1CC(c2nc(C3CC3)no2)C1)NCc1ccc(F)cc1 | -4.69% |
| CC(C)OCCOCc1cccc(NC(=O)NCCn2ccnc2)c1 | -8.94% |
| Cc1ccc(C)c(S(=O)(=O)NCCOc2ccc3nnc(C)n3n2)c1 | 42.7% |

| SMILES | cytotoxicity at 70.5 h |
| --- | --- |
| CNC(=O)CCNC(=O)Nc1cccc(Cl)c1SC(F)F | 0.534% |
| CCCS(=O)(=O)N(C)C(=O)CCc1ccccc1 | -8.46% |
| O=S(=O)(CCCc1ccccc1)Cc1nnnn1C1CC1 | -8.42% |
| N#Cc1cccnc1NCc1cccc(C(=O)NCC2CCCCO2)c1 (stereo not drawn) | -10.4% |
| Cc1nccn1Cc1nnc(C2CCCN(Cc3cccnc3)C2)n1C (stereo not drawn) | 5.17% |
| Cc1ncsc1C(=O)N1CCCC(c2noc(C(C)C)n2)C1 (stereo not drawn) | 0.861% |
| Cc1ccc(CN2CCCN(Cc3cscn3)CC2)cc1 | 3.58% |
| COc1ccc(C)cc1NC(=O)C1CSc2ncc(C)c(=O)n2C1 (stereo not drawn) | 8.57% |
| CN(C)CCN1C(=O)CCC12CCN(C(=O)c1cccnc1)CC2 | -4% |
| Cc1nnc(CNC(=O)[C@@H]2C[C@H](NC(=O)C(C)(C)C)CN2C)[nH]1 | -9.08% |
| Cc1noc(CN2CCN(Cc3cccs3)CC2)n1 | -25.4% |
| COC(=O)C1CN(Cc2nc(-c3ccccc3)cs2)C[C@@H](C)O1 (stereo partly drawn) | 3.89% |
| Cc1noc(C2CCCN(CC(=O)N3CCc4ccccc4C3)C2)n1 (stereo not drawn) | -1.69% |
| O=C(c1cccs1)N1CCc2ncc(Cn3cncn3)n2CC1 | -13.5% |
| CNc1cncc(C2CCCN(S(C)(=O)=O)C2)n1 (stereo not drawn) | 0.632% |
| CC(=O)N1CCCC2(C1)CN(C(=O)C1CCCCC1)CCO2 (stereo not drawn) | 23.5% |
| Cc1ccc2oc(C(=O)N3CCCC(n4ccnc4C)C3)cc2n1 (stereo not drawn) | 0.879% |
| CCc1ncc(C(=O)N2CCN(C(=O)COc3ccccc3)CC2)cn1 | -3.1% |
| Fc1cccc2[nH]c(CN3CCn4c(nnc4C4CC4)C3)nc12 | 1.58% |
| O=C(C1CCCCC1)N1CCC2(CCCN2CC2CC2)CC1 | -2.81% |
| O=C(c1ccoc1)N1C[C@H]2CC[C@@]3(N=C(c4ccccc4)NC3=O)[C@H]2C1 | 0.375% |
